≈ marks a conversion by molar mass, not a printed value. A value given as a limit tells only on which side of the number the result lay.

What all share (assay): microbe, parasite or virus in culture
Holding throughout (format): cell-based

Assay [1] deals with M. tuberculosis strain resistant to isoniazid (ATCC 35822). As to conditions: Mycobacterium tuberculosis, ATCC35822, read-out: MIC INH-R (ug/ml).
The test system of assay [2] is M. tuberculosis strain resistant to rifampin (ATCC 35838). As to conditions: Mycobacterium tuberculosis, ATCC35838, read-out: MIC RMP-R (ug/ml).
The test system of assay [3] is M. tuberculosis EMB-R strain. Conditions: Mycobacterium tuberculosis, read-out: MIC EMB-R (ug/ml).
In assay [4] the test system is M. tuberculosis ETA-R strain. As to conditions: Mycobacterium tuberculosis, read-out: MIC ETA-R (ug/ml).

With `O=C(Oc1ccccc1)c1ccc(NC(=S)Nc2ccccc2)cc1O` [SAMPLE ID 131326], the MIC is not above 0.1 µg/mL in assay [1], 0.2 µg/mL (≈ 0.549 µM) in assay [2], 0.2 µg/mL (≈ 0.549 µM) in assay [3] and 0.2 µg/mL (≈ 0.549 µM) in assay [4].

Source of the values: US6600063B1, “Derivatives of phenyl 4-aminosalicylate and method of making the same” (priority 2000, dated 2003).
